In brackets after ≈: the same amount, converted by molar mass. Several values for one entry are separate records, joined by “and”; a condition that tells them apart may be missing. Equal entries are not always repeated. Where two headings read alike, the source gives them in different places.
Assays:
P. aeruginosa PAO1 = test: MIC by two-fold dilution, wild type PAO1; type: cell-based, Pseudomonas aeruginosa; conditions: Pseudomonas aeruginosa
Method in brief: (§1)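 Minimum inhibitory concentrations were determined by serial two-fold dilution, in LB broth for one series and MOPS-M9 medium for the other. Bacteria were cultured at 37 °C with aeration.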

P. aeruginosa PAO1-Pore = test: MIC by two-fold dilution, hyperporinated PAO1-Pore; type: cell-based, Pseudomonas aeruginosa; conditions: for MIC: Pseudomonas aeruginosa; for MICs: PAO1-Pore, LB broth, Table S2
Method in brief: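 Strains carried the fhuA pore construct PLAC-fhuA at attTn7; PΔ3 lacks mexAB, mexCD and mexXY efflux pumps. MICs came from two-fold broth dilution in LB or MOPS-M9 medium, depending on the data set, with growth at 37 °C under aeration.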

P. aeruginosa PΔ3 = test: microbe, parasite or virus in culture; type: cell-based, Pseudomonas aeruginosa; conditions: Pseudomonas aeruginosa
Method: In all experiments, P. aeruginosa PAO1-Pore (PAO1 attTn7::PLAC-fhuA) and PΔ3-Pore (ΔmexAB ΔmexCD ΔmexXY attTn7::PLAC-fhuA) strains were used[29]. Strains were routinely grown in Luria–Bertani (LB) or MOPS-M9 medium at 37 °C with aeration. MICs shown in Tables 1 and 2 were determined by a two-fold dilution method in LB broth and MOPS-M9 medium, respectively, following the previously described protocol.

P. aeruginosa PΔ3-Pore = test: MIC by two-fold dilution, barrierless PΔ3-Pore; type: cell-based, Pseudomonas aeruginosa; conditions: for MIC: Pseudomonas aeruginosa; for MICs: P∆3-Pore, Table S2
Method in brief: as §1

[1] = test system: four strains of P. aeruginosa; type: cell-based, Pseudomonas aeruginosa
Method: Cells were sub-cultured (50–100 mL) 1:100 in fresh LB broth in two flasks per strain. At OD600 0.3 (~ 1.5 to 2 h of incubation), the expression of the pore was induced with 0.1 mM IPTG (final concentration) in one of the flasks and cells were grown for additional 1 to 1.5 h (OD600 1- 1.5). Cells were collected by centrifugation at room temperature (RT) and washed in PMG Buffer (50 mM KPi, pH 7.0, 1 mM MgSO4, 0.4% glucose, prepared fresh) and concentrated 20x (i.e., 100 mL culture resuspended in 5 ml of PMG Buffer with final OD600 ~ 20–30). Assays were performed in 96-well 1.0 µm Glass Fiber Type B filters plates (Millipore). […]
[…] Filter plates were dried, removed from the vacuum manifold and left in the hood overnight to dry completely.

P. aeruginosa PAO1 cells = test: LC–MS quantification of intracellular accumulation, PAO1; conditions: 10-80 µM; for Concentration slopes of accumulation, PAO1_1 min: 1 min incubation; for Concentration slopes of accumulation, PAO1_40 min: 40 min incubation;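 as to all read-outs here: slope of accumulation versus external concentration fitted as a line through zero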
Method in brief: (§2)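 Cells grown in MOPS-M9 (pH 7.2) with 1% glycerol, Pore strains induced with 0.1 mM IPTG, concentrated 10X in spent medium and exposed to 10, 20, 40, 80 µM compound for 1 and 40 min at RT. Filter-collected cells extracted with methanol; compound quantified by positive-ion LC–MS against calibration in PAO1 cell extract, no-cell filter controls.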

[2] = test system: P. aeruginosa PAO1-Pore cells; test: LC–MS quantification of intracellular accumulation, PAO1-Pore; conditions: 10-80 µM; for Concentration slopes of accumulation, PAO1-Pore_1 min: 1 min incubation; for Concentration slopes of accumulation, PAO1-Pore_40 min: 40 min incubation;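 as to all read-outs here: slope of accumulation versus external concentration fitted as a line through zero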
Method in brief: as §2

P. aeruginosa PΔ3 cells = conditions: 10-80 µM; for Concentration slopes of accumulation, PΔ3_1 min: 1 min incubation; for Concentration slopes of accumulation, PΔ3_40 min: 40 min incubation;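 as to all read-outs here: slope of accumulation versus external concentration fitted as a line through zero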
Method in brief: as §2

[3] = test system: P. aeruginosa PΔ3-Pore cells; test: LC–MS quantification of intracellular accumulation, PΔ3-Pore; conditions: 10-80 µM; for Concentration slopes of accumulation, PΔ3-Pore_1 min: 1 min incubation; for Concentration slopes of accumulation, PΔ3-Pore_40min: 40 min incubation;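 as to all read-outs here: slope of accumulation versus external concentration fitted as a line through zero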
Method in brief: as §2

P. aeruginosa = conditions: sheet "Good" permeators; all listed compounds are good permeators
Method: The measured levels of compound accumulation were analyzed using machine learning to determine which features of the compounds are most important for enabling their cellular accumulation and to determine their optimal values. […] To accentuate the permeability aspect, the accumulation slopes in efflux-deficient and hyperporinated strains were normalized to those in the parental PAO1 strain.
To help visualize the data, we performed a principal component (PC) decomposition of the data.

[4] = test system: P. aeruginosa hyperporinated strains; test: Vancomycin susceptibility spot assay on minimal medium; type: cell-based, Pseudomonas aeruginosa; conditions: MOPS-M9 medium, in the presence of inducer
Method: PAO1-Pore and PΔ3-Pore were grown at 37 °C overnight with shaking at 225 rpm in 50 mM MOPS-M9 (pH 7.2) Minimal Medium supplemented with 1% glycerol[42],[43].

[5] = PAO1, LB broth, Table 1, read-out: MIC
[6] = radioactively labeled compound, four strains, 20 min
[7] = PAO1, MOPS-M9 medium, read-out: MICs
[8] = read-out: MICs, P∆3-Pore, MOPS-M9 medium

Row | Structure (SMILES) | MIC (P. aeruginosa PAO1; [5]) | MIC (P. aeruginosa PAO1-Pore; PAO1) | MIC (P. aeruginosa PΔ3) | MIC (P. aeruginosa PΔ3-Pore; PΔ3-Pore, LB broth, Table 1) | effect of efflux inactivation and hyperporination on accumulation [1, 6] | MIC (P. aeruginosa PAO1; [7]) | MIC (P. aeruginosa PAO1-Pore; PAO1, read-out: MICs) | MIC (P. aeruginosa PΔ3; read-out: MICs) | MIC (P. aeruginosa PΔ3-Pore; [8]) | Concentration slopes of accumulation, PAO1_1 min (P. aeruginosa PAO1 cells) | Concentration slopes of accumulation, PAO1_40 min (P. aeruginosa PAO1 cells) | Concentration slopes of accumulation, PAO1-Pore_1 min [2] | Concentration slopes of accumulation, PAO1-Pore_40 min [2] | Concentration slopes of accumulation, PΔ3_1 min (P. aeruginosa PΔ3 cells) | Concentration slopes of accumulation, PΔ3_40 min (P. aeruginosa PΔ3 cells) | Concentration slopes of accumulation, PΔ3-Pore_1 min [3] | Concentration slopes of accumulation, PΔ3-Pore_40min [3] | MICs (P. aeruginosa PAO1-Pore) | MICs (P. aeruginosa PΔ3-Pore; LB broth) | also measured
1 | CC(C)Nc1cccnc1N1CCN(C(=O)c2cc3cc(NS(C)(=O)=O)ccc3[nH]2)CC1 [Delavirdine] | > 1000 µM | > 1000 µM | > 1000 µM | > 1000 µM | equally affected by inactivation of efflux and hyperporination |  |  |  |  |  |  |  |  |  |  |  |  |  |  | effect of efflux inactivation and hyperporination on accumulation ([1]; radioactively labeled compound, four strains, 20 min, listed as [^3H]-delavirdine): Hyperporination had the strongest effect
2 | O=C1Nc2ccc(Cl)cc2[C@@](C#CC2CC2)(C(F)(F)F)O1 [Efavirenz] | > 1000 µM | > 1000 µM | > 1000 µM | 25 µM and 7.89 µg/mL |  |  |  |  |  |  |  |  |  |  |  |  |  |  |  | MIC (P. aeruginosa PΔ3-Pore; PΔ3-Pore cells): 25000 µM (≈ 7890 µg/mL); effect of efflux inactivation and hyperporination on accumulation ([1]; not told): Hyperporination had the strongest effect
3 | COCCc1ccc(OCC(O)CNC(C)C)cc1 (stereo not drawn) [Metoprolol] | > 1000 µM | > 1000 µM | > 1000 µM | > 1000 µM | not affected by either of the two barriers |  |  |  |  |  |  |  |  |  |  |  |  |  |  | 
4 | NC(=O)Cc1cccc(C(=O)c2ccccc2)c1N [Nepafenac] |  | > 1000 µM | > 1000 µM | > 1000 µM | Hyperporination had the strongest effect |  |  |  |  |  |  |  |  |  |  |  |  |  |  | MIC (P. aeruginosa PAO1; PAO1): > 1000 µM
5 | Cc1cc(C)nc(NS(=O)(=O)c2ccc(N)cc2)n1 [OU-0000689, SULFAMETHAZINE] |  |  |  |  |  | > 200 µM and > 60.1 µg/mL | 50 µM and 15 µg/mL | 100 µM and 30 µg/mL | 12.5 µM and 3.75 µg/mL | 1.42 | 1.40 | 1.53 | 1.05 | 1.31 | 1.35 | 1.54 | 1.19 |  |  | Cluster of the identified "good" permeators (P. aeruginosa): 1
6 | CCn1cc(C(=O)O)c(=O)c2cc(F)c(N3CCNCC3)cc21 [OU-0000789, Norfloxacin] |  |  |  |  |  | 1.25 µM and 0.4 µg/mL | 0.2 µM and 0.06 µg/mL | 0.625 µM and 0.2 µg/mL | 0.1 µM and 0.03 µg/mL | 37.81 | 32.76 | 31.44 | 54.56 | 15.28 | 26.08 | 25.07 | 33.05 | 1 | 0.0156 | Cluster of the identified "good" permeators (P. aeruginosa): 3
7 | O=C(O)c1cn(C2CC2)c2cc(N3CCNCC3)c(F)cc2c1=O [OU-0001036, Ciprofloxacin] | 0.19 µM and 0.06 µg/mL | 0.09 µM and 0.03 µg/mL | 0.05 µM and 0.02 µg/mL | 0.02 µM and 0.01 µg/mL | inactivation of efflux led to significantly higher levels of accumulation | 1 µM and 0.33 µg/mL | 0.0625 µM and 0.02 µg/mL | 0.25 µM and 0.08 µg/mL | 0.031 µM and 0.01 µg/mL | 1.15 | 2.47 | 3.53 | 3.32 | 2.99 | 1.33 | 2.77 | 2.77 | 0.09 | 0.02 | effect of hyperporination on antibacterial activity (P. aeruginosa PAO1-Pore; MIC PAO1 vs PAO1-Pore): two-fold
8 | CC(=O)NC[C@H]1CN(c2ccc(N3CCOCC3)c(F)c2)C(=O)O1 [OU-0031508, linezolid] |  |  |  |  |  | > 200 µM and > 67.5 µg/mL | 200 µM (≈ 67.5 µg/mL) | 200 µM (≈ 67.5 µg/mL) | 25 µM (≈ 8.43 µg/mL) | 34.71 | 41.30 | 12.71 | 26.51 | 39.20 | 25.30 | 30.83 | 28.73 | 25 | 12.5 | Cluster of the identified "good" permeators (P. aeruginosa): 3
9 | Cc1cc(C(C)(C)C)c(O)c(C)c1CC1=NCCN1 [Oxymetazoline] | > 1000 µM | > 1000 µM | 1000 µM (≈ 260 µg/mL) | 1000 µM (≈ 260 µg/mL) | Efflux inactivation or hyperporination resulted in a similar increase |  |  |  |  |  |  |  |  |  |  |  |  |  |  | accumulated radioactivity washed out of cells ([1]; PΔ3-Pore cells, 30 min incubation, 0.1 mL wash): 95%
10 | CN(C)[C@@H]1C(O)=C(C(N)=O)C(=O)[C@@]2(O)C(O)=C3C(=O)c4c(O)cccc4[C@@](C)(O)[C@H]3C[C@@H]12 [Tetracycline] | 12.5 µM and 5.56 µg/mL | 0.39 µM and 0.17 µg/mL | 0.78 µM and 0.35 µg/mL | 0.78 µM and 0.35 µg/mL |  |  |  |  |  |  |  |  |  |  |  |  |  | 0.39-1.56 | 0.78 | effect of efflux inactivation and hyperporination on accumulation ([1]; not told): equally affected by inactivation of efflux and hyperporination
11 | CN[C@H](CC(C)C)C(=O)N[C@H]1C(=O)N[C@@H](CC(N)=O)C(=O)N[C@H]2C(=O)N[C@H]3C(=O)N[C@H](C(=O)N[C@H](C(=O)O)c4cc(O)cc(O)c4-c4cc3ccc4O)[C@H](O)c3ccc(c(Cl)c3)Oc3cc2cc(c3O[C@@H]2O[C@H](CO)[C@@H](O)[C@H](O)[C@H]2O[C@H]2C[C@](C)(N)[C@H](O)[C@H](C)O2)Oc2ccc(cc2Cl)[C@H]1O [vancomycin] |  |  |  |  |  |  |  |  |  |  |  |  |  |  |  |  |  |  |  | susceptibility in spot assay [4]: highly susceptible

From PMC9114115, “Property space mapping of Pseudomonas aeruginosa permeability to small molecules” (Scientific Reports, 2022)
